Data as given in patent EP4763841A1, “PYRIDAZINONE COMPOUND AND USE THEREOF” (Xi'an Xintong Pharmaceutical Research Co., Ltd., priority 2023, dated 2025).
pEC50: −log10 of the molar value. “Also recorded” adds a separate entry of the source.

Experiments:
[1] = molecular target: THRα (Homo sapiens, UniProt P10827); test: HTRF test of agonist-induced SRC3-2 coactivator peptide recruitment to THRα-LBD; assay type: biochemical
Protocol: 1. Experiment of binding of compounds to THRβ and THRα
Test principle: The effect of test compounds on THRβ and THRα was tested by using a method of HTRF. An MAb Anti GST-Eu cryptate antibody binds to GST-tagged THRα-LBD (or THRβ-LBD), while Streptavidin-XL665 binds to a biotin-labeled SRC3-2 coactivator peptide. […] At the same time, the resulting decrease in the distance between XL665-labeled SRC3-2 and an Eu-anti-GST antibody increases a THRFRET signal. The agonistic capacity at this target was assessed by the effect of compounds on the activity of THRα-LBD (THRβ-LBD) at different concentrations.
• (1) a 1×reaction solution was prepared. • (2) Preparation of compounds: the compound test starting concentration was 20 µM, 3-fold dilution was performed, 10 concentrations were set, and duplicate testing was set for each concentration. 100-fold dilution was performed in a 384-well Source plate to a corresponding solution with a final concentration, and then 200 nL of the solution was transferred to a 384-well reaction plate with Echo550 to be tested. 200 nL of 100% DMSO and a test article were respectively transferred to Min and Max wells. • (3) A 2×protein solution was prepared from the 1×reaction solution. • (4) A 4×SRC3-2 solution was prepared from the 1×reaction solution. • (5) A mixed solution of 4×GST-Eu cryptate and XL665 was prepared from the 1×reaction solution. • (6) 10 µl of the 2×protein solution was added to each well of the reaction plate, centrifugation was performed at 1000 rpm for 1 min, and incubation was performed at room temperature for 30 min. • (7) 5 µl of the 4×SRC3-2 solution was added to each well of the reaction plate, and centrifugation was performed at 1000 rpm for 1 min. • (8) 5 µL of the mixed solution of 4×GST-Eu cryptate and XL665 was added to each well of the reaction plate, centrifugation was performed at 1000 rpm for 1 min, and incubation was performed at 25°C. • (9) A fluorescence signal was read by using EnVision.
THRα test procedures were the same as above.

[2] = In vivo pharmacokinetic study of elimination phase half-life after single IV bolus; design: species or system Sprague Dawley rats; settings: rat, blood, iv, I.V bolus, 5 mg/kg, rats, read-out: Elimination phase half-life (T1/2) (converted)
Protocol: Blood samples were collected from animals (IV group) before administration and at time points of 0.083 h, 0.25 h, 0.5 h, 1 h, 2 h, 4 h, 8 h, and 24 h after the end of administration. • Sample treatment: prior to blood collection, a centrifuge tube with 10 µl of EDTA-K2 and 1.2 mL of 50% acetonitrile-DMSO (a volume ratio of whole blood to 50% acetonitrile-DMSO is approximately 1:4) was placed in an ice box filled with crushed ice. The collected blood was added to the centrifuge tube, vortexed for at least 5 min, and then temporarily stored and transported in the ice box filled with crushed ice; and the blood was centrifuged at 12,000 g for 10 min at 4°C, wherein centrifugation was completed within 1 h after blood collection. A whole blood supernatant after centrifugation was transferred to a newly labeled tube, and transferred to -60°C or below for storage for analytical testing.

[3] = Distribution of compounds in major organs after single gavage administration; assay type: in vivo, Sprague Dawley rats; settings: gavage 5 mg/kg single dose, 1 h and 4 h, SD rats, result in words (FIG. 2)
Protocol: 0.25-0.3 ml of Systemic blood (jugular vein) was taken at each blood collection point to be added into an EDTA-K2 anticoagulant tube, uniform mixing was performed by gentle inversion, and the obtained mixture was stored on crushed ice for transport. Collection plan: PO blood collection point: 1 h and 4 h after administration. Animals were euthanized, tissues and organs were taken, and livers (0.3-0.5 g of liver was taken at a fixed position of a large lobe of liver), kidneys, and hearts were weighed, placed in 5 ml centrifuge tubes, quick-frozen on dry ice, and cryopreserved at -20°C.
A solvent (methanol:acetonitrile:water=25:25:50) was added for grinding and homogenization, and this process was performed rapidly by using a tissue grinder.
A solvent was added to the liver to 3 ml, one large steel ball and one small steel ball were added, and grinding was performed at 50 Hz for 60 s. Vortexing was performed for uniform mixing, and centrifugation was performed at 8000 rpm for 5 min. 0.3 ml of a supernatant was taken, a solvent was added until 3 ml, vortexing was performed for uniform mixing, and centrifugation was performed at 8000 rpm for 5 min. 0.1 ml of a supernatant was taken, 0.2 ml of acetonitrile was added, vortexing was performed for 30 s, and centrifugation was performed at 10000 rpm for 5 min. A supernatant was taken and sent for testing to analyze the drug content. […]

THRα, sequence (P10827 148-410 isoform P10827-2 limits assumed, other chains not shown): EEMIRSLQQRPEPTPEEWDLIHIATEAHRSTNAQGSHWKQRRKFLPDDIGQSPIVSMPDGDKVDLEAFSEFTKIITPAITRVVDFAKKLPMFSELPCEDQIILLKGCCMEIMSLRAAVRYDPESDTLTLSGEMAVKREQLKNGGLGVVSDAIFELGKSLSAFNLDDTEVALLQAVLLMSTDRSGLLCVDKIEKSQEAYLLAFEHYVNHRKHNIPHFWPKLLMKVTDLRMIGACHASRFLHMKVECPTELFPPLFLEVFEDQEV

Compound: [2H]C([2H])([2H])C(c1c(C)c(Oc2c(Cl)cc(-n3nc(CF)c(=O)[nH]c3=O)cc2Cl)n[nH]c1=O)C([2H])([2H])[2H] [Compound 6]
- pEC50 ([1]; HTRF, starting concentration 20 µM, 3-fold dilution, 10 concentrations, duplicate): < 5.30
- agonistic activity on THRα ([1]; result in words): weak agonistic activity on THRα
- half-life [2]: 7.8 h
- liver distribution [3]: significant liver distribution advantage over Resmetirom and the compound X1; also recorded: significant liver distribution advantage over Resmetirom and a compound X1
